Data from PubChem BioAssay (NCI).
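Following 48 hours of exposure in 96-well plates, responses at five concentrations were used to interpolate endpoints linearly. TGI denotes the concentration required for complete inhibition of growth.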

What was measured:
Assay in all cases: growth of human tumour cells (NCI), 48 h
SK-MEL-5 melanoma = system: SK-MEL-5 melanoma
DLD-1 colon = system: DLD-1 colon
COLO 205 colon = system: COLO 205 colon
CCRF-CEM leukemia = system: CCRF-CEM leukemia
A549 NSCLC = system: A549 NSCLC
OVCAR-8 ovarian = system: OVCAR-8 ovarian
SF-539 CNS = system: SF-539 CNS
LOX IMVI melanoma = system: LOX IMVI melanoma
K-562 leukemia = system: K-562 leukemia
NCI-H23 lung = system: NCI-H23 lung
SNB-78 CNS = system: SNB-78 CNS
HCC-2998 colon = system: HCC-2998 colon
MALME-3M melanoma = system: MALME-3M melanoma
DMS 273 small cell lung = system: DMS 273 small cell lung
ACHN renal = system: ACHN renal
TK-10 renal = system: TK-10 renal
SW-620 colon = system: SW-620 colon
786-0 renal = system: 786-0 renal
M19-MEL melanoma = system: M19-MEL melanoma
HCT-15 colon = system: HCT-15 colon
UACC-62 melanoma = system: UACC-62 melanoma
M14 melanoma = system: M14 melanoma
HL-60(TB) leukemia = system: HL-60(TB) leukemia
NCI-H226 lung = system: NCI-H226 lung
MOLT-4 leukemia = system: MOLT-4 leukemia
SNB-75 CNS = system: SNB-75 CNS
IGROV1 ovarian = system: IGROV1 ovarian
HOP-18 NSCLC = system: HOP-18 NSCLC
UACC-257 melanoma = system: UACC-257 melanoma
SK-OV-3 ovarian = system: SK-OV-3 ovarian
SF-268 CNS = system: SF-268 CNS
RXF-631 renal = system: RXF-631 renal
SN12C renal = system: SN12C renal
EKVX NSCLC = system: EKVX NSCLC
RXF 393 renal = system: RXF 393 renal
OVCAR-5 ovarian = system: OVCAR-5 ovarian
LXFL 529 NSCLC = system: LXFL 529 NSCLC
SNB-19 CNS = system: SNB-19 CNS
U251 CNS = system: U251 CNS
NCI-H522 lung = system: NCI-H522 lung
CAKI-1 renal = system: CAKI-1 renal
UO-31 renal = system: UO-31 renal
A498 renal = system: A498 renal
HOP-92 NSCLC = system: HOP-92 NSCLC
OVCAR-4 ovarian = system: OVCAR-4 ovarian
RPMI-8226 leukemia = system: RPMI-8226 leukemia
KM20L2 colon = system: KM20L2 colon
NCI-H460 lung = system: NCI-H460 lung
KM12 colon = system: KM12 colon
HCT-116 colon = system: HCT-116 colon
SF-295 CNS = system: SF-295 CNS
SK-MEL-28 melanoma = system: SK-MEL-28 melanoma
SK-MEL-2 melanoma = system: SK-MEL-2 melanoma
HT29 colon = system: HT29 colon
OVCAR-3 ovarian = system: OVCAR-3 ovarian
DMS 114 small cell lung = system: DMS 114 small cell lung
XF 498 CNS = system: XF 498 CNS
HOP-62 NSCLC = system: HOP-62 NSCLC
SR leukemia = system: SR leukemia

CN(C)c1ccc(/C=C/c2ccc(/C=C/c3ccc(N(C)C)cc3)cc2)cc1
TGI (SK-MEL-5 melanoma): > 100 µM
TGI (DLD-1 colon): > 100 µM
TGI (COLO 205 colon): > 100 µM
TGI (CCRF-CEM leukemia): > 100 µM
TGI (A549 NSCLC): > 100 µM
TGI (OVCAR-8 ovarian): > 100 µM
TGI (SF-539 CNS): > 100 µM
TGI (LOX IMVI melanoma): > 100 µM
TGI (K-562 leukemia): > 100 µM
TGI (NCI-H23 lung): > 100 µM
TGI (SNB-78 CNS): > 100 µM
TGI (HCC-2998 colon): > 100 µM
TGI (MALME-3M melanoma): > 100 µM
TGI (DMS 273 small cell lung): > 100 µM
TGI (ACHN renal): > 100 µM
TGI (TK-10 renal): > 100 µM
TGI (SW-620 colon): > 100 µM
TGI (786-0 renal): > 100 µM
TGI (M19-MEL melanoma): > 100 µM
TGI (HCT-15 colon): > 100 µM
TGI (UACC-62 melanoma): > 100 µM
TGI (M14 melanoma): > 100 µM
TGI (HL-60(TB) leukemia): > 100 µM
TGI (NCI-H226 lung): > 100 µM
TGI (MOLT-4 leukemia): > 100 µM
TGI (SNB-75 CNS): > 100 µM
TGI (IGROV1 ovarian): > 100 µM
TGI (HOP-18 NSCLC): > 100 µM
TGI (UACC-257 melanoma): > 100 µM
TGI (SK-OV-3 ovarian): > 100 µM
TGI (SF-268 CNS): > 100 µM
TGI (RXF-631 renal): > 100 µM
TGI (SN12C renal): > 100 µM
TGI (EKVX NSCLC): > 100 µM
TGI (RXF 393 renal): > 100 µM
TGI (OVCAR-5 ovarian): > 100 µM
TGI (LXFL 529 NSCLC): > 100 µM
TGI (SNB-19 CNS): > 100 µM
TGI (U251 CNS): > 100 µM
TGI (NCI-H522 lung): > 100 µM
TGI (CAKI-1 renal): > 100 µM
TGI (UO-31 renal): > 100 µM
TGI (A498 renal): > 100 µM
TGI (HOP-92 NSCLC): > 100 µM
TGI (OVCAR-4 ovarian): > 100 µM
TGI (RPMI-8226 leukemia): > 100 µM
TGI (KM20L2 colon): > 100 µM
TGI (NCI-H460 lung): > 100 µM
TGI (KM12 colon): > 100 µM
TGI (HCT-116 colon): > 100 µM
TGI (SF-295 CNS): > 100 µM
TGI (SK-MEL-28 melanoma): > 100 µM
TGI (SK-MEL-2 melanoma): > 100 µM
TGI (HT29 colon): > 100 µM
TGI (OVCAR-3 ovarian): > 100 µM

COC(=O)C1=C(c2ccc(OC)c(OC)c2)OC(c2cc(OC)c(OC)c(OC)c2)C1 (stereo not given)
TGI (SK-MEL-5 melanoma): > 100 µM
TGI (DLD-1 colon): > 100 µM
TGI (CCRF-CEM leukemia): > 100 µM
TGI (A549 NSCLC): > 100 µM
TGI (OVCAR-8 ovarian): > 100 µM
TGI (SF-539 CNS): > 100 µM
TGI (LOX IMVI melanoma): > 100 µM
TGI (K-562 leukemia): > 100 µM
TGI (NCI-H23 lung): > 100 µM
TGI (SNB-78 CNS): 68.5 µM
TGI (HCC-2998 colon): > 100 µM
TGI (MALME-3M melanoma): > 100 µM
TGI (DMS 114 small cell lung): > 100 µM
TGI (DMS 273 small cell lung): > 100 µM
TGI (ACHN renal): > 100 µM
TGI (TK-10 renal): > 100 µM
TGI (SW-620 colon): > 100 µM
TGI (XF 498 CNS): > 100 µM
TGI (786-0 renal): 74.4 µM
TGI (M19-MEL melanoma): > 100 µM
TGI (HOP-62 NSCLC): 47.4 µM
TGI (M14 melanoma): > 100 µM
TGI (NCI-H226 lung): > 100 µM
TGI (SNB-75 CNS): 25.6 µM
TGI (IGROV1 ovarian): > 100 µM
TGI (HOP-18 NSCLC): > 100 µM
TGI (UACC-257 melanoma): > 100 µM
TGI (SK-OV-3 ovarian): 56.8 µM
TGI (SF-268 CNS): > 100 µM
TGI (RXF-631 renal): > 100 µM
TGI (SN12C renal): > 100 µM
TGI (EKVX NSCLC): > 100 µM
TGI (RXF 393 renal): 66.9 µM
TGI (OVCAR-5 ovarian): > 100 µM
TGI (LXFL 529 NSCLC): > 100 µM
TGI (U251 CNS): > 100 µM
TGI (CAKI-1 renal): > 100 µM
TGI (UO-31 renal): > 100 µM
TGI (A498 renal): 63 µM
TGI (HOP-92 NSCLC): 65.2 µM
TGI (OVCAR-4 ovarian): > 100 µM
TGI (RPMI-8226 leukemia): > 100 µM
TGI (KM20L2 colon): > 100 µM
TGI (NCI-H460 lung): > 100 µM
TGI (KM12 colon): > 100 µM
TGI (SF-295 CNS): > 100 µM
TGI (SK-MEL-28 melanoma): > 100 µM
TGI (SK-MEL-2 melanoma): > 100 µM
TGI (HT29 colon): > 100 µM
TGI (OVCAR-3 ovarian): > 100 µM

COC(=O)CCC1CCc2c(OC)ccc(OC)c2C1=O (stereo not given)
TGI (SK-MEL-5 melanoma): > 100 µM
TGI (DLD-1 colon): > 100 µM
TGI (COLO 205 colon): > 100 µM
TGI (CCRF-CEM leukemia): > 100 µM
TGI (A549 NSCLC): > 100 µM
TGI (OVCAR-8 ovarian): > 100 µM
TGI (SF-539 CNS): > 100 µM
TGI (LOX IMVI melanoma): > 100 µM
TGI (K-562 leukemia): > 100 µM
TGI (NCI-H23 lung): > 100 µM
TGI (SNB-78 CNS): > 100 µM
TGI (HCC-2998 colon): > 100 µM
TGI (MALME-3M melanoma): > 100 µM
TGI (SR leukemia): > 100 µM
TGI (DMS 114 small cell lung): > 100 µM
TGI (DMS 273 small cell lung): > 100 µM
TGI (ACHN renal): > 100 µM
TGI (TK-10 renal): > 100 µM
TGI (SW-620 colon): > 100 µM
TGI (786-0 renal): > 100 µM
TGI (HCT-15 colon): > 100 µM
TGI (HOP-62 NSCLC): > 100 µM
TGI (UACC-62 melanoma): > 100 µM
TGI (M14 melanoma): > 100 µM
TGI (HL-60(TB) leukemia): > 100 µM
TGI (MOLT-4 leukemia): > 100 µM
TGI (SNB-75 CNS): > 100 µM
TGI (IGROV1 ovarian): > 100 µM
TGI (UACC-257 melanoma): > 100 µM
TGI (SK-OV-3 ovarian): > 100 µM
TGI (SF-268 CNS): > 100 µM
TGI (SN12C renal): > 100 µM
TGI (EKVX NSCLC): > 100 µM
TGI (RXF 393 renal): > 100 µM
TGI (OVCAR-5 ovarian): > 100 µM
TGI (LXFL 529 NSCLC): > 100 µM
TGI (SNB-19 CNS): > 100 µM
TGI (U251 CNS): > 100 µM
TGI (NCI-H522 lung): > 100 µM
TGI (UO-31 renal): > 100 µM
TGI (OVCAR-4 ovarian): > 100 µM
TGI (RPMI-8226 leukemia): > 100 µM
TGI (KM20L2 colon): > 100 µM
TGI (NCI-H460 lung): > 100 µM
TGI (KM12 colon): > 100 µM
TGI (SF-295 CNS): > 100 µM
TGI (SK-MEL-28 melanoma): > 100 µM
TGI (SK-MEL-2 melanoma): > 100 µM
TGI (HT29 colon): > 100 µM
TGI (OVCAR-3 ovarian): > 100 µM
